This passage reports IC50, Activity and Stability results from ChEMBL document CHEMBL4602662, “Orthoscuticellines A-E, β-Carboline Alkaloids from the Bryozoan Orthoscuticella ventricosa Collected in Australia” (J Nat Prod, 2020).

Data set [1] concerns Plasmodium falciparum. As to the kind of experiment: Antiplasmodial activity against chloroquine-sensitive Plasmodium falciparum 3D7 incubated for 72 hrs by DAPI-staining based imaging analysis. Format: functional, organism-based. Particulars: 3D7, 72 h.
For data set [2], the system named is HEK293. As to the kind of experiment: Cytotoxicity against HEK293 cells incubated for 72 hrs by resazurin dye based assay. The format is cell-based. The following applies: Homo sapiens, HEK293, 72 h.
Data set [3] deals with HEK293. As to the kind of experiment: Cytotoxicity against HEK293 cells at 40 uM incubated for 72 hrs by resazurin dye based assay relative to control. Format: cell-based. The following applies: human, hek293, 72 h.
In data set [4] the test system is Plasmodium falciparum. The data set is described as follows: Antiplasmodial activity against Plasmodium falciparum K1. The format is functional, organism-based.
Data set [5] is described as follows: Stability of compound. The format is physicochemical.

Structures are written as SMILES.

On to `c1ccc2c(c1)[nH]c1c([C@H]3CC[C@H]3c3nccc4c3[nH]c3ccccc34)nccc12`, for which the IC50 in the data set on Plasmodium falciparum [1] and with HEK293 [2] was 10 µM throughout. Take `CCN(CC)CCCC(C)Nc1ccnc2cc(Cl)ccc12` (stereo not drawn) [CHLOROQUINE]: the IC50 with HEK293 [2] is > 40 µM. In the data set with HEK293 [3], this compound showed an Activity of 40%. With `CCN(CC)CCCNc1nccc2c1[nH]c1ccccc12`, the IC50 in the data set with Plasmodium falciparum [4] lay within 1 to 18 µM. Turning to `CCc1ncc(S(C)(=O)=O)c2c1[nH]c1ccccc12`, the IC50 in the data set with Plasmodium falciparum [1] is 21 µM; with HEK293 [2], > 40 µM. This compound yielded an Activity in the data set with HEK293 [3] of 17%.

`c1ccc2c(c1)[nH]c1c(N3CCC(N4CCCC4)CC3)nccc12` displayed an IC50 in the data set with Plasmodium falciparum [4] of 1 to 18 µM. On to `O=S(=O)(O)CCc1nccc2c1[nH]c1ccccc12`, for which the IC50 is 12 µM in the data set with Plasmodium falciparum [1] and > 40 µM in the data set on HEK293 [2]. This compound also returned an Activity in the data set on HEK293 [3] of 30%.

Take `CCN(CC)CCCC(C)Nc1nccc2c1[nH]c1ccccc12` (stereo not drawn): in the data set on Plasmodium falciparum [4], the IC50 is 1 to 18 µM. As to `OCC(O)c1nccc2c1[nH]c1ccccc12` (stereo not drawn), the IC50 in the data set with Plasmodium falciparum [1] was 14 µM; in the data set with HEK293 [2] it was > 40 µM. The compound also gave an Activity in the data set with HEK293 [3] of 37%. In the data set with Plasmodium falciparum [4], `c1ccc2c(c1)[nH]c1c(N3CCC(N4CCCCCC4)CC3)nccc12` came in with an IC50 of 1 to 18 µM. With `CCc1nccc2c1[nH]c1ccccc12`, the IC50 with Plasmodium falciparum [1] is 18 µM; in the data set on HEK293 [2], > 40 µM. In the data set with HEK293 [3], this compound gave an Activity of 35%. For `c1ccc2c(c1)[nH]c1c([C@H]3CC[C@@H]3c3nccc4c3[nH]c3ccccc34)nccc12` the same measures were > 40 µM, > 40 µM and 29%. For the compound `C[C@H]1[C@H](OC(=O)CCC(=O)O)O[C@@H]2O[C@@]3(C)CC[C@H]4[C@H](C)CC[C@@H]1[C@@]24OO3` [ARTESUNATE], the IC50 in the data set with Plasmodium falciparum [1] was 0.0003 µM. `c1ccc2c(c1)[nH]c1c(N3CCC(N4CCCCC4)CC3)nccc12`: the IC50 in the data set on Plasmodium falciparum [4] is 1 to 18 µM.

For the compound `CCN(CC)C1CCN(c2nccc3c2[nH]c2ccccc23)CC1`, in the data set with Plasmodium falciparum [4], the IC50 lay in the range of 1 to 18 µM. `CN(C)CCc1nccc2c1[nH]c1ccccc12`: in data set [5], the Stability entry is given as “Unstable”. `c1ccc2c(c1)[nH]c1c(N3CCCCC3)nccc12`: in the data set on Plasmodium falciparum [4], the 50% inhibitory concentration (IC50) lay within 1 to 18 µM. Same read-out and setting: with `OC1CCCN(c2nccc3c2[nH]c2ccccc23)C1` (stereo not drawn) the figure was 1 to 18 µM; with `CN1CCN(c2nccc3c2[nH]c2ccccc23)CC1`, 1 to 18 µM.

Take `OCCNc1nccc2c1[nH]c1ccccc12`: the IC50 with Plasmodium falciparum [4] was 1 to 18 µM.

Consider `CN(C)CCCNc1nccc2c1[nH]c1ccccc12`, for which, in the data set on Plasmodium falciparum [4], the half-inhibitory concentration (IC50) was in the range of 1 to 18 µM.

Consider `c1ccc2c(c1)[nH]c1c(N3CCOCC3)nccc12`, for which the IC50 in the data set with Plasmodium falciparum [4] was in the range of 1 to 18 µM.
